The text below walks through data of US20230210858A1, “PODOSOMES AS A THERAPEUTIC TARGET FOR INTRACRANIAL ANEURYSM” (THE BOARD OF REGENTS OF THE UNIVERSITY OF TEXAS SYSTEM, priority 2022, published 2023).

Molecules are shown by their SMILES.

The subject of experiment [1] is thsd1-MO injected zebrafish embryos. Nature of the experiment: Hemorrhagic incidence in thsd1-MO injected zebrafish embryos (Table 5 constructs) treated with SRC inhibitors (FIG. 13). It counts as in vivo. As to the method:
(§1) Anti-sense morpholinos against thsd1, atg5 or talin was injected into one-cell stage zebrafish singly or in combination to silence the gene accordingly. At day 2 to day 3, embryos will be checked under regular optical microscope. Embryos with intracranial hemorrhages will be counted and imaged by Olympus microscope.
Subsequently, the nucleic acid constructs encoding these sequences were introduced into zebrafish thsd1 by PCR mutagenesis. Specifically, the thsd1 variant or the WT sequence was subcloned into pCS2+ zebrafish vector for expression. These constructs were used as tools to study cerebrovascular integrity mediated by thsd1 WT and rare variants in the zebrafish animal model selected to model a human condition.
All embryos were injected by thsd1-MO and the hemorrhagic incidence was counted under microscope. For each injection, around 80-120 embryos were injected. *p<0.05, **p<0.01.

Experiment [2] has as its system Thsd1-deficient zebrafish. The experiment can be described thus: Intracranial hemorrhage in thsd1 knockdown zebrafish embryos treated with SRC inhibitor (FIG. 8). It counts as in vivo. Particulars: vs DMSO control, n>120 embryos, p<0.05, FIG. 8b. The protocol: as §1
Intracranial aneurysm and hemorrhage are tightly associated with compromised cerebrovascular integrity. Recently, zebrafish have gained additional popularity as a vertebrate model organism for studying the cerebrovasculature. Since zebrafish embryos are transparent, intracranial hemorrhage can be directly observed using a standard microscope. Furthermore, zebrafish fecundity and rapid development permits rapid phenotypic evaluation as intracranial hemorrhage in zebrafish fry are detectable as early as 2-3 days post fertilization. Importantly, gain-of-function and loss-of-function approaches are well established in zebrafish that include morpholino and mRNA injections and more recently, through applications of CRISPR/Cas9 technology.
FIGS. 8a-8b are experimental results depicting that loss-of-function of Thsd1 induces SRC-dependent intracranial hemorrhage in zebrafish, and treatment with a PP2 SRC inhibitor prevents intracranial hemorrhage in Thsd1-deficient zebrafish. […] FIG. 8b is a chart quantifying the number of embryos with intracranial hemorrhage (%).

Consider `CC(C)(C)n1nc(-c2ccc(Cl)cc2)c2c(N)ncnc21` [PP2], for which, in experiment [1] (10 uM in embryo water at 1 dpf for 24 hours), the “hemorrhagic incidence (intracranial hemorrhage)” value is on record as “rescued intracranial hemorrhage”. Moreover, the “number of embryos with intracranial hemorrhage (%)” value in experiment [2] was “ameliorated Thsd1-dependent hemorrhage incidents”.

In the case of `CN(C)S(=O)(=O)c1ccc2c(c1)/C(=C/c1cc3c([nH]1)CCCC3)C(=O)N2` [SU5565], the “hemorrhagic incidence (intracranial hemorrhage)” value in experiment [1] (1 uM in embryo water at 1 dpf for 24 hours) was “rescued intracranial hemorrhage”.
